We go through two compounds from patent publication US20250213584A1, “ERCC1-XPF COMPLEX INHIBITOR COMPOUNDS AND THE USE THEREOF IN THE TREATMENT OF CANCER” (FUNDAÇÃO D. ANNA DE SOMMER CHAMPALIMAUD E DR. CARLOS MONTEZ …, priority 2023, published 2025).

pIC50: −log10 of the molar value.

The test system of assay [1] is H1299 cells. As to the kind of experiment: Crystal violet (CV) staining assay, cisplatin cytotoxicity. In kind it is cell-based, human. Conditions: 72-h incubation. The method, then:
To evaluate the cisplatin cytotoxicity effect in the selected H1299 cell line (highest ERCC1 expression), a concentration-response profile was established resorting to two mechanistically different cell viability assays, the CV staining and the MTS reduction assays (FIG. 9). The IC50 values for cisplatin were also calculated for a 72-h incubation period based on its dose-response profile. The cytotoxicity of cisplatin in H1299 cells was evaluated according to a previously described crystal violet (CV) staining protocol. This assay allows the colorimetric determination of adherent cells by staining their nucleus. First, cells were inoculated at a density of approximately 3×10^3 cells/well in 200 μL of complete culture medium in 96-well plates. After adherence (24 h), culture medium was renewed, and the cells were incubated with a range of 1-30 μM of cisplatin for another 72 h. After incubation, cells were washed with warm PBS to remove non-adherent cells (non-viable cells). The adherent cells were then fixated with ice-cold 96% ethanol for 10 min and stained with 0.1% crystal violet in 10% ethanol for 5 min. […] Absorbance was measured at 595 nm (OD595) using a SPECTROstar OMEGA microplate reader. […] The IC50 values were calculated based on the obtained concentration-response curves using GraphPad Prism® 9.0 (GraphPad Software, Inc., La Jolla, CA, USA).

In assay [2] the test system is H1299 cells. In words: MTS reduction assay, cisplatin cytotoxicity. The class given is cell-based, human. The protocol: To evaluate the cisplatin cytotoxicity effect in the selected H1299 cell line (highest ERCC1 expression), a concentration-response profile was established resorting to two mechanistically different cell viability assays, the CV staining and the MTS reduction assays (FIG. 9). The IC50 values for cisplatin were also calculated for a 72-h incubation period based on its dose-response profile. The 3-(4,5-dimethylthiazol-2-yl)-5-(3-carboxymethoxyphenyl)-2-(4-sulfophenyl)-2H-tetrazolium salt (MTS) reduction assay was carried out as a confirmatory assay of cell viability. This methodology is commonly used in in vitro toxicology and is based on the enzymatic reduction of a tetrazolium salt in viable cells by mitochondrial enzymes (NAD-dependent dehydrogenase) with the formation of a colored formazan product. […] H1299 cells were incubated for 2 h30 with the MTS reagent and the absorbance was measured at 490 nm and 690 nm (reference wavelength) using a SPECTROstar OMEGA microplate reader. Absorbance values presented by vehicle-treated control cells corresponded to 100% of cell viability. […] The IC50 was also calculated based on the concentration-response curve using GraphPad Prism® 9.0.
(Formazan colour is commonly taken as a measure of viable cells.)

Another assay concerns the target T1, ERCC1-XPF (Homo sapiens, UniProt Q92889).
T1 sequence (Q92889 1-916): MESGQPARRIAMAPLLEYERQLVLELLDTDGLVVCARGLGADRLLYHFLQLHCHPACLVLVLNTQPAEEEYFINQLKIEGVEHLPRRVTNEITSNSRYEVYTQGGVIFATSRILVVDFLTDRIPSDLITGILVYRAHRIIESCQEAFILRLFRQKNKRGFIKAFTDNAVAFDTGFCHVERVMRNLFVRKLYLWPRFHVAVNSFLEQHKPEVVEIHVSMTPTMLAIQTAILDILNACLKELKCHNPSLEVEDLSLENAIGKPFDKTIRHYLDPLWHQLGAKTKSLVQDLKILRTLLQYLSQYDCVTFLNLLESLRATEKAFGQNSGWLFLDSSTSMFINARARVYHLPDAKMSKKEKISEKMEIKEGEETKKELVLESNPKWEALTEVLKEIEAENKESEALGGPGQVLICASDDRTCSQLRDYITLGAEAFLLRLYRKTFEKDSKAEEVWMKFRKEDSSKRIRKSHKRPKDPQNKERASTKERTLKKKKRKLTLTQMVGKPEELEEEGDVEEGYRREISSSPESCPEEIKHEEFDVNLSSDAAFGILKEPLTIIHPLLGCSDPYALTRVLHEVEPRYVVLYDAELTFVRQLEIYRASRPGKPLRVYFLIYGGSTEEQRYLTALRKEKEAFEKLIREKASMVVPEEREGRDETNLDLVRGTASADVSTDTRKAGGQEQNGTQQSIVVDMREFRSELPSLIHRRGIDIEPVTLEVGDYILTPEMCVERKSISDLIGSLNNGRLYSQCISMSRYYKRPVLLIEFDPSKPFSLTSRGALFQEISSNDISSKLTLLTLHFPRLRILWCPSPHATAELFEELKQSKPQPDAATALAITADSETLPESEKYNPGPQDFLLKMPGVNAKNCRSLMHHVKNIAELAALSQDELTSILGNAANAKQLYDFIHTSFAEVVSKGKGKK
Particulars: literature; cited from earlier work.

Consider `N.N.[Cl][Pt][Cl]` [cisplatin], for which the pIC50 in the assay on H1299 cells [1] was 5.52; with H1299 cells [2] (72-h incubation), 5.43. In the assay with H1299 cells [2] (cisplatin alone at 1 μM, 72 h), the cell death is given as 10-15%.

As to `COc1ccc2nc3cc(Cl)ccc3c(Nc3ccc(O)c(CN4CCN(C)CC4)c3)c2c1` [F06], the “disruption of ERCC1-XPF interaction” value on ERCC1-XPF was “ability to disrupt the interaction between ERCC1 and XPF”.

What is called pIC50 is the IC50 on a negative log10 scale, so that one unit is a factor of ten.
